Measured values reported in PubChem BioAssay (NCI).
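Exposure lasted 48 hours, with cells grown in 96-well plates and compounds tested at five concentrations. GI50 = concentration required for 50% inhibition of growth. TGI: concentration producing complete growth inhibition.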

How the values were obtained:
Assay in all cases: NCI anticancer screen, dose series, 48 h
[1] = system: PC-3 prostate
[2] = system: LOX IMVI melanoma
[3] = system: SNB-75 CNS
[4] = system: HOP-62 NSCLC
[5] = system: HOP-92 NSCLC
[6] = system: NCI-H226 lung
[7] = system: NCI-H23 lung
[8] = system: SN12C renal
[9] = system: ACHN renal
[10] = system: SF-268 CNS
[11] = system: U251 CNS
[12] = system: SF-539 CNS
[13] = system: UACC-257 melanoma
[14] = system: HL-60(TB) leukemia
[15] = system: NCI/ADR-RES ovarian
[16] = system: IGROV1 ovarian
[17] = system: MDA-MB-435
[18] = system: HS 578T breast
[19] = system: EKVX NSCLC
[20] = system: MOLT-4 leukemia
[21] = system: M14 melanoma
[22] = system: OVCAR-5 ovarian
[23] = system: T-47D breast
[24] = system: NCI-H522 lung
[25] = system: SF-295 CNS
[26] = system: HCT-116 colon
[27] = system: KM12 colon
[28] = system: HCC-2998 colon

What does the source list for `CCN1C(=O)N(CC)C2SC(N/N=C/c3cccs3)=NC21` (centres undefined)?
GI50 [1]: 345 nM; TGI [1]: > 100000 nM; GI50 [2]: 446 nM; TGI [2]: > 100000 nM; GI50 [3]: 122 nM; GI50 [4]: 470 nM; TGI [4]: > 100000 nM; GI50 [5]: 922 nM; TGI [5]: > 23300 nM; GI50 [6]: 1430 nM; TGI [6]: > 100000 nM; GI50 [7]: 418 nM; TGI [7]: > 100000 nM; GI50 [8]: 653 nM; TGI [8]: > 100000 nM; GI50 [9]: 581 nM; TGI [9]: > 100000 nM; GI50 [10]: 1710 nM; TGI [10]: > 100000 nM; GI50 [11]: 318 nM; TGI [11]: > 32600 nM; GI50 [12]: 198 nM; TGI [12]: 823 nM; GI50 [13]: 1050 nM; TGI [13]: > 100000 nM; GI50 [14]: 186 nM; TGI [14]: 658 nM; GI50 [15]: 356 nM; TGI [15]: > 100000 nM; GI50 [16]: 579 nM; TGI [16]: > 100000 nM; GI50 [17]: 33.8 nM; TGI [17]: 205 nM; GI50 [18]: 286 nM; TGI [18]: > 100000 nM; GI50 [19]: 655 nM; TGI [19]: > 100000 nM; GI50 [20]: 465 nM; TGI [20]: > 100000 nM; GI50 [21]: 192 nM; TGI [21]: > 100000 nM; GI50 [22]: 527 nM; TGI [22]: > 100000 nM; GI50 [23]: > 45100 nM; TGI [23]: > 100000 nM; GI50 [24]: 81.1 nM; TGI [24]: 386 nM; GI50 [25]: 262 nM; TGI [25]: > 100000 nM; GI50 [26]: 281 nM; TGI [26]: 5430 nM; GI50 [27]: 232 nM; TGI [27]: > 100000 nM; GI50 [28]: 313 nM
